Laboratory results published in article PMC3253173 (Free radical biology & medicine, 2011).

Target: T1, gp91phox (Homo sapiens, UniProt P04839)
T1 sequence (P04839 2-570): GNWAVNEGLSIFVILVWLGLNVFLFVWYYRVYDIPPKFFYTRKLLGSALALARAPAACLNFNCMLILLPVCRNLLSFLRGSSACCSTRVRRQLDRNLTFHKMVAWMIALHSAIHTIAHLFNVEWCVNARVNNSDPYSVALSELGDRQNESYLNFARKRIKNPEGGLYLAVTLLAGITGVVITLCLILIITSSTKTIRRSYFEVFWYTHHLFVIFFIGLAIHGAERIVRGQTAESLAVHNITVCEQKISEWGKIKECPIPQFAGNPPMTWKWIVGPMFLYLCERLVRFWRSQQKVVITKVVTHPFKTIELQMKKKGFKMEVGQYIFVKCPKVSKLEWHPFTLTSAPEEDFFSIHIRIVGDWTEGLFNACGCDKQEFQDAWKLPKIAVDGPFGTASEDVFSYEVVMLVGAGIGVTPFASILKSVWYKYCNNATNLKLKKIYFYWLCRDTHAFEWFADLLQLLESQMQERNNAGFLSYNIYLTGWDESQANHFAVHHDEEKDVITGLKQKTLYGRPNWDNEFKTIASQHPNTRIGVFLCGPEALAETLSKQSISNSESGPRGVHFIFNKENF
T1 sequence (P13498 2-195 partner): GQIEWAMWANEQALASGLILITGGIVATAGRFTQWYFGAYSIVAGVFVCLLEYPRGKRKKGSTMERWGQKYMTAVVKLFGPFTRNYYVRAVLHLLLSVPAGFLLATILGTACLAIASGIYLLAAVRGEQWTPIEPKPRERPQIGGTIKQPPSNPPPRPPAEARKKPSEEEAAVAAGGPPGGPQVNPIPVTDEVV
Test: saturation radioligand binding on COS-cytob558 membranes

C=C(C)[C@H]1Cc2c(ccc3c2O[C@@H]2COc4cc(OC)c(OC)cc4[C@@H]2C3=O)O1 [rotenone]
Kd: 21.2 ± 3.47 nM
